Key:
[1] = test system: FAM-Pu22 (DNA, G4) TGAGGGTGGGTAGGGTGGGTAA; assay: fluorescence intensity titration of labelled DNA; details: 150 mM KCl; 10 mM Tris-HCl, pH 7.4, RT, 2-3% DMSO, 50 nM DNA
[2] = test system: c-Myc (Pu22) (DNA, G4) TGAGGGTGGGTAGGGTGGGTAA; assay: thiazole orange displacement (FID); details: 140 mM KCl, 20 mM Na cacodylate; pH 7, RT, 10% DMSO; 0.5 μM TO displaced, 0.5 μM DNA
[3] = test system: FAM-Pu22 (DNA, G4) TGAGGGTGGGTAGGGTGGGTAA; assay: microscale thermophoresis; details: 150 mM KCl; 10 mM Tris-HCl, pH 7.4
[4] = test system: c-Myc (Pu22) (DNA, G4) TGAGGGTGGGTAGGGTGGGTAA; assay: 1H NMR; details: 70 mM KCl, 25 mM KPi; pH 7, 298 K, 10% DMSO-d6, 0.1 mM DNA
[5] = test system: dsDNA 24bp (FAM-duplex) (DNA, duplex) CGCGAATTCGCGCGCGAATTCGCG; assay: microscale thermophoresis; details: 150 mM KCl; 10 mM Tris-HCl, pH 7.4
[6] = test system: c-Myc (Pu22) (DNA, G4) TGAGGGTGGGTAGGGTGGGTAA; assay: 1H NMR titration; details: 70 mM KCl, 25 mM KPi; pH 7, 298 K, 10% DMSO-d6, 0.1 mM DNA

Row | Compound | K D FAM [1] | DC50 FID [2] | K D MST [3] | binding [4] | Kd [5] | binding [6]
1 | CN(C)Cc1c[nH]c2ccc([N+](=O)[O-])cc12 | 15.21 ± 1.93 µM | 19.11 ± 0.88 µM | 13.22 ± 0.80 µM |  |  | 
2 | NCCNCCNCCNCCNCc1n[nH]c2ccccc12 |  | 15.63 ± 1.08 µM |  |  |  | 
3 | NCCNCCNCCNCCNCc1c[nH]c2ncccc12 |  | 16.63 ± 1.93 µM |  |  |  | 
4 | NCCNCCNCCNCCNCc1ccc2c(c1)OCO2 |  | 18.11 ± 1.69 µM |  |  |  | 
5 | CN(C)Cc1c[nH]c2ccc(N)cc12 | 6.29 ± 0.71 µM | 3.83 ± 0.11 µM | 2.21 ± 0.89 µM | weak |  | 

Continued, values first:

Row | K D FAM [1] | DC50 FID [2] | K D MST [3] | binding [4] | Kd [5] | binding [6] | Compound
6 | 6.30 ± 0.63 µM | 3.71 ± 0.32 µM | 2.32 ± 0.41 µM | weak |  |  | Cn1ccc2cc(N)ccc21
7 | 7.12 ± 0.45 µM | 6.31 ± 0.43 µM | 2.86 ± 0.33 µM |  | 18.0 ± 1.33 µM |  | Nc1ccc2c(ccn2CCCN2CCCC2)c1
8 | 12.32 ± 0.94 µM | 14.53 ± 0.61 µM | 17.18 ± 0.54 µM |  |  |  | Cc1cc2cc(N)ccc2n1C
9 | 16.87 ± 1.58 µM | 19.12 ± .92 µM | 15.11 ± 0.30 µM |  |  |  | c1ccc2c(c1)ccn2CCCN1CCCC1
10 | 7.53 ± 0.93 µM | 6.81 ± 0.9 µM | 5.52 ± 0.61 µM | yes |  |  | O=[N+]([O-])c1ccc2[nH]cc(CNCCN3CCCC3)c2c1
11 |  | 16.11 ± 1.33 µM |  |  |  |  | c1cc2c(cc1CNCCN1CCCC1)OCO2
12 | 2.81 ± 0.37 µM | 3.30 ± 0.86 µM | 1.30 ± 0.21 µM |  | 32.3 ± 1.69 µM | yes | O=[N+]([O-])c1ccc2c(c1)c(CNCCN1CCCC1)cn2CCCN1CCCC1
13 | 2.43 ± 0.29 µM | 5.01 ± 0.15 µM | 1.49 ± 0.12 µM | yes | 38.1 ± 2.39 µM |  | O=[N+]([O-])c1ccc2c(ccn2CCCN2CCCC2)c1
